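Cultured in 96-well plates, cells were exposed to test compound for 48 hours across five concentrations. GI50 = concentration required for 50% inhibition of growth.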 Active and inactive are the calls of the source. Rule as the data show it: active = GI50 up to about 1.1 µM and inactive = higher. A value given as a limit tells only on which side of the number the result lay.

Among the test systems are 786-0; A498; A549; BT-549; HCC 2998; HCT-116; HT-29; M14; MOLT-4; Malme-3M; NCI-H23; NCI-H460; NCI-H522; OVCAR-4; OVCAR-8; SK-MEL-28; TK-10; U-251; LOX IMVI; MDA-N.
Holding throughout (assay): growth of human tumour cells (NCI), 48 h

Take `Oc1c(/N=N/c2ccccc2)c2ccccc2c2ccc3ccccc3c12`: the GI50 with 786-0 was 44.6 µM (inactive); in the experiment with A498, > 100 µM (inactive); with A549, 43.2 µM (inactive); in the experiment on BT-549, 73.8 µM (inactive); in the experiment on HCC 2998, > 100 µM (inactive); in the experiment on HCT-116, > 100 µM (inactive). Further, the GI50 with HT-29 was > 100 µM (inactive); in the experiment on M14, 57.5 µM (inactive); with MOLT-4 it was 40.6 µM (inactive); in the experiment with Malme-3M it was 48.3 µM (inactive); in the experiment with NCI-H23, > 100 µM (inactive); in the experiment with NCI-H460, > 100 µM (inactive). The GI50 is > 100 µM (inactive) in the experiment on NCI-H522; 33.2 µM (inactive) in the experiment on OVCAR-4; 76.6 µM (inactive) in the experiment on OVCAR-8; > 100 µM (inactive) in the experiment with SK-MEL-28; > 100 µM (inactive) in the experiment on TK-10; 39.6 µM (inactive) in the experiment with U-251.
`N#C/C(N)=C(C#N)/N=C/N`: the GI50 in the experiment with 786-0, in the experiment with A549, in the experiment on HCC 2998, in the experiment on HCT-116, with HT-29 and with LOX IMVI was > 100 µM (inactive) throughout. Further, the GI50 with M14, with MDA-N, in the experiment with MOLT-4, in the experiment on Malme-3M, in the experiment with NCI-H23 and in the experiment with NCI-H460 was > 100 µM (inactive) each time. Also, the GI50 in the experiment on OVCAR-4, with OVCAR-8, in the experiment on SK-MEL-28, in the experiment with TK-10 and in the experiment with U-251 was > 100 µM (inactive) in each case.
For `Clc1cccc(Cl)c1C1ON=C(c2ccccc2)N1C12CC3CC(CC(C3)C1)C2` (stereo not drawn), the GI50 in the experiment on 786-0 was 32.4 µM (inactive); with A498, 56.4 µM (inactive); in the experiment on A549, 25.2 µM (inactive); with HCC 2998 it was 13.8 µM (inactive); with HCT-116, 10.9 µM (inactive); in the experiment on HT-29, 29.1 µM (inactive). Besides, the GI50 in the experiment with LOX IMVI was 7.26 µM (inactive); in the experiment on M14, 22.3 µM (inactive); in the experiment with MDA-N, 37.6 µM (inactive); in the experiment on MOLT-4 it was 7.31 µM (inactive); with Malme-3M, 14.8 µM (inactive); in the experiment with NCI-H23, 31 µM (inactive). Moreover, the GI50 was 13.7 µM (inactive) in the experiment with NCI-H460; 32.2 µM (inactive) with NCI-H522; 25.3 µM (inactive) in the experiment on OVCAR-4; 32.7 µM (inactive) in the experiment on OVCAR-8; 45 µM (inactive) in the experiment on SK-MEL-28; 63.7 µM (inactive) in the experiment on TK-10. Besides, the GI50 in the experiment with U-251 was 62.5 µM (inactive).
With `Cc1cc(C)c2cc(N)c(Cl)nc2n1`, the GI50 with 786-0 is > 100 µM (inactive); in the experiment on A549, > 100 µM (inactive); in the experiment with BT-549, > 100 µM (inactive); with HCT-116, > 100 µM (inactive); with HT-29, 63.5 µM (inactive); with M14, > 100 µM (inactive). Further, the GI50 in the experiment with MDA-N is > 100 µM (inactive); in the experiment with Malme-3M, > 100 µM (inactive); in the experiment on NCI-H23 it was > 100 µM (inactive); with NCI-H460, 96.4 µM (inactive); in the experiment with NCI-H522, 18.7 µM (inactive); in the experiment with OVCAR-8 it was > 100 µM (inactive). Besides, the GI50 was > 100 µM (inactive) in the experiment on TK-10 and 99.5 µM (inactive) in the experiment on U-251.
Consider `CC1OC(OCC2OC(Oc3c(-c4ccc(O)cc4)oc4cc(O)cc(O)c4c3=O)C(OC3OC(C)C(O)C(O)C3O)C(O)C2O)C(O)C(O)C1O` (stereo not drawn), for which the GI50 in the experiment on 786-0, with A498, in the experiment on A549, in the experiment on HCC 2998, in the experiment with HCT-116 and in the experiment on HT-29 was > 100 µM (inactive) in each case. Moreover, the GI50 is > 63.1 µM (inactive) with LOX IMVI; > 100 µM (inactive) in the experiment with M14; > 100 µM (inactive) with MOLT-4; > 100 µM (inactive) in the experiment on Malme-3M; > 100 µM (inactive) with NCI-H23; > 68.9 µM (inactive) in the experiment with NCI-H460. Further, the GI50 in the experiment with NCI-H522 was > 100 µM (inactive); with OVCAR-4 it was > 54.8 µM (inactive); with OVCAR-8 it was > 100 µM (inactive); in the experiment on SK-MEL-28, > 100 µM (inactive); with TK-10 it was > 100 µM (inactive); in the experiment with U-251, > 100 µM (inactive).
For the molecule `CC(=O)Nc1ccc2c3c(cc(O)c2c1)N(C(=O)CCCC(=O)N1CC(CCl)c2c1cc(O)c1cc(NC(C)=O)ccc21)CC3CCl` (stereo not drawn), the GI50 is < 0.01 µM (active) with 786-0; < 0.01 µM (active) in the experiment on A498; < 0.01 µM (active) in the experiment on A549; 0.011 µM (active) with BT-549; 0.0122 µM (active) in the experiment with HCC 2998; < 0.01 µM (active) in the experiment on HCT-116. Also, the GI50 in the experiment with HT-29 was 0.0125 µM (active); in the experiment with LOX IMVI, < 0.01 µM (active); with M14, < 0.01 µM (active); in the experiment on MOLT-4, < 0.01 µM (active); in the experiment on Malme-3M it was 0.01 µM (active); in the experiment with NCI-H23, < 0.01 µM (active). In addition, the GI50 with NCI-H460 is < 0.01 µM (active); in the experiment on NCI-H522, < 0.01 µM (active); in the experiment with OVCAR-4, 0.0238 µM (active); in the experiment on OVCAR-8 it was < 0.01 µM (active); in the experiment on SK-MEL-28, 0.0201 µM (active); in the experiment on TK-10 it was 0.022 µM (active). Also, in the experiment on U-251, the GI50 was < 0.01 µM (active).
Regarding `Cc1cn2c(/C=N/NC(=N)N)c(-c3ccc([N+](=O)[O-])cc3)nc2s1`, the GI50 in the experiment on 786-0 was 0.256 µM (active); with A498 it was 1.52 µM (inactive); in the experiment with A549, 1.66 µM (inactive); in the experiment with HCT-116, 0.227 µM (active); in the experiment on HT-29, 1.32 µM (inactive); with LOX IMVI it was 0.352 µM (active). In addition, the GI50 with M14 was 1.17 µM (inactive); in the experiment on MDA-N, 0.425 µM (active); with Malme-3M it was 1.39 µM (inactive); in the experiment with NCI-H23, 1.59 µM (inactive); in the experiment on NCI-H460 it was 1.76 µM (inactive); in the experiment with OVCAR-4, 0.169 µM (active). Further, the GI50 is 0.149 µM (active) in the experiment on OVCAR-8, 1.57 µM (inactive) in the experiment on SK-MEL-28, 1.57 µM (inactive) with TK-10 and 0.995 µM (active) in the experiment on U-251.
Consider `C#CCNC(CSSCC(N)C(=O)O)C(=O)O` (stereo not drawn), for which the GI50 in the experiment with 786-0, in the experiment with A498, in the experiment with A549, in the experiment on HCC 2998, in the experiment with HCT-116 and with HT-29 was > 100 µM (inactive) throughout. Moreover, the GI50 in the experiment with M14, in the experiment with MDA-N, with MOLT-4, in the experiment with Malme-3M, in the experiment on NCI-H23 and in the experiment on NCI-H522 was > 100 µM (inactive) in each case. For the same molecule, the GI50 in the experiment with OVCAR-4, in the experiment with OVCAR-8, with SK-MEL-28, in the experiment with TK-10 and in the experiment on U-251 was > 100 µM (inactive) each time.

The record behind these values is ChEMBL document CHEMBL1201862, “PubChem BioAssay data set” (2004).
